The subject of this test is NCI-H929 complex spheroids, viability % test/control. As to the kind of experiment: Anticancer human tumor NCI-H929 cell line growth inhibition [RAS].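 For all read-outs here: compound exposure lasted seven days before viability was read.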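 For viability, T/C: 100% = DMSO vehicle control viability.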 The settings on record: for viability, T/C: stronger effect = lower value. In short, it runs like this: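 Agents were tested in combination matrices in half-log decrements from a top concentration at or near clinical Cmax (10 microM if undetermined). Targets were multi-cell spheroids of tumour lines plus HUVEC and MSC stromal cells.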

The source of these data is PubChem BioAssay AID2060884 (Molecular Pharmacology Branch, DTP, NCI, 2025).

Several values for one entry are separate records, joined by “and”; a condition that tells them apart may be missing. Equal entries are not always repeated.

The IC50 is the concentration needed to halve the response being measured. One may read the viability, T/C as the result in the treated group divided by that in the control group, in per cent. `NC1c2ccccc2OC12CCN(c1cnc3c(N4CCCc5ncccc54)n[nH]c3n1)CC2` (stereo not given) + CCn1c(-c2cc(N3CCN(C)CC3)cnc2C(C)OC)c2c3cc(ccc31)-c1csc(n1)CC(NC(=O)C1CC1C)C(=O)N1CCCC(N1)C(=O)OCC(C)(C)C2: the IC50 reads like this: (curve of first compound, second compound 0.000949 µM) greater than 10 µM; (curve of first compound, second compound 0.003 µM) greater than 10 µM; (curve of first compound, second compound 0.00949 µM) greater than 10 µM; (curve of first compound, second compound 0.03 µM) less than 0.0316 µM; (curve of first compound, second compound 0.0949 µM) less than 0.0316 µM; (curve of first compound, second compound 0.3 µM) less than 0.0316 µM. The viability, T/C runs as follows: (second compound 0.000949 µM, first compound 0.0316 µM) 107%; (second compound 0.000949 µM, first compound 0.1 µM) 104%; (second compound 0.000949 µM, first compound 0.316 µM) 108%; (second compound 0.000949 µM, first compound 1 µM) 108%; (second compound 0.000949 µM, first compound 3.16 µM) 113%; (second compound 0.000949 µM, first compound 10 µM) 78.6%. In addition, the viability, T/C by setting is: (second compound 0.003 µM, first compound 0.0316 µM) 107%; (second compound 0.003 µM, first compound 0.1 µM) 108%; (second compound 0.003 µM, first compound 0.316 µM) 109%; (second compound 0.003 µM, first compound 1 µM) 111%; (second compound 0.003 µM, first compound 3.16 µM) 109%; (second compound 0.003 µM, first compound 10 µM) 80.9%. Moreover, the viability, T/C runs as follows: (second compound 0.00949 µM, first compound 0.0316 µM) 121%; (second compound 0.00949 µM, first compound 0.1 µM) 128%; (second compound 0.00949 µM, first compound 0.316 µM) 128%; (second compound 0.00949 µM, first compound 1 µM) 125%; (second compound 0.00949 µM, first compound 3.16 µM) 121%; (second compound 0.00949 µM, first compound 10 µM) 87.8%. For the same compound, the viability, T/C runs as follows: (second compound 0.03 µM, first compound 0.0316 µM) 15.4%; (second compound 0.03 µM, first compound 0.1 µM) 13.8%; (second compound 0.03 µM, first compound 0.316 µM) 14.9%; (second compound 0.03 µM, first compound 1 µM) 12.7%; (second compound 0.03 µM, first compound 3.16 µM) 18.3%; (second compound 0.03 µM, first compound 10 µM) 12%. Further, the viability, T/C was 3.25% (second compound 0.0949 µM, first compound 0.0316 µM); 2.4% (second compound 0.0949 µM, first compound 0.1 µM); 2.09% (second compound 0.0949 µM, first compound 0.316 µM); 2.07% (second compound 0.0949 µM, first compound 1 µM); 1.88% (second compound 0.0949 µM, first compound 3.16 µM); 0.76% (second compound 0.0949 µM, first compound 10 µM). Moreover, the viability, T/C reads like this: (second compound 0.3 µM, first compound 0.0316 µM) 1.75%; (second compound 0.3 µM, first compound 0.1 µM) 1.24%; (second compound 0.3 µM, first compound 0.316 µM) 0.73%; (second compound 0.3 µM, first compound 1 µM) 0.89%; (second compound 0.3 µM, first compound 3.16 µM) 1.51%; (second compound 0.3 µM, first compound 10 µM) 0.19%.

Regarding `CC1(C)CCC(Nc2ncc(C(F)(F)F)c(-c3c[nH]c4c(P(C)(C)=O)c(C#N)ccc34)n2)CN1` (stereo not given), the viability, T/C was 14.5% [middle of 4 runs] (compound 0.00949 µM), 8.74% [middle of 4 runs] (compound 0.03 µM), 9.57% [middle of 4 runs] (compound 0.0949 µM) and 5.41% [middle of 4 runs] (compound 0.3 µM).

For the compound `CC(C)NCC(C(=O)N1CCN(c2ncnc3c2C(C)CC3O)CC1)c1ccc(Cl)cc1` (stereo not given) + C=CC(=O)N1CCN(c2nc(OCC3CCCN3C)nc3c(F)c(-c4nc(N)cc(C)c4C(F)(F)F)c(Cl)cc23)C(C)C1, the IC50 (curve of first compound, second compound 0.00316 µM) was 2.82 µM; the IC50 (curve of first compound, second compound 0.01 µM) stood at 3.07 µM; the IC50 (curve of first compound, second compound 0.0316 µM) was found to be 4.68 µM; the IC50 (curve of first compound, second compound 0.1 µM) was 4.08 µM; the IC50 (curve of first compound, second compound 0.316 µM) came out at 2.49 µM; the IC50 (curve of first compound, second compound 1 µM) amounted to 3.66 µM. In addition, the viability, T/C reads like this: (second compound 0.00316 µM, first compound 0.0316 µM) 102%; (second compound 0.00316 µM, first compound 0.1 µM) 101%; (second compound 0.00316 µM, first compound 0.316 µM) 108%; (second compound 0.00316 µM, first compound 1 µM) 101%; (second compound 0.00316 µM, first compound 3.16 µM) 44.4%; (second compound 0.00316 µM, first compound 10 µM) 12.1%. Moreover, the viability, T/C by setting is: (second compound 0.01 µM, first compound 0.0316 µM) 103%; (second compound 0.01 µM, first compound 0.1 µM) 103%; (second compound 0.01 µM, first compound 0.316 µM) 105%; (second compound 0.01 µM, first compound 1 µM) 104%; (second compound 0.01 µM, first compound 3.16 µM) 48.5%; (second compound 0.01 µM, first compound 10 µM) 15.1%. Besides, the viability, T/C (second compound 0.0316 µM, first compound 0.0316 µM) is 97.5%; the viability, T/C (second compound 0.0316 µM, first compound 0.1 µM) was 103%; the viability, T/C (second compound 0.0316 µM, first compound 0.316 µM) is 108%; the viability, T/C (second compound 0.0316 µM, first compound 1 µM) was 103%; the viability, T/C (second compound 0.0316 µM, first compound 3.16 µM) is 67.6%; the viability, T/C (second compound 0.0316 µM, first compound 10 µM) was 16.1%. In addition, the viability, T/C is 101% (second compound 0.1 µM, first compound 0.0316 µM); 105% (second compound 0.1 µM, first compound 0.1 µM); 110% (second compound 0.1 µM, first compound 0.316 µM); 108% (second compound 0.1 µM, first compound 1 µM); 60% (second compound 0.1 µM, first compound 3.16 µM); 15.2% (second compound 0.1 µM, first compound 10 µM). Moreover, the viability, T/C was 102% (second compound 0.316 µM, first compound 0.0316 µM); 105% (second compound 0.316 µM, first compound 0.1 µM); 109% (second compound 0.316 µM, first compound 0.316 µM); 106% (second compound 0.316 µM, first compound 1 µM); 35.4% (second compound 0.316 µM, first compound 3.16 µM); 15.4% (second compound 0.316 µM, first compound 10 µM). For the same compound, the viability, T/C reads like this: (second compound 1 µM, first compound 0.0316 µM) 114%; (second compound 1 µM, first compound 0.1 µM) 115%; (second compound 1 µM, first compound 0.316 µM) 108%; (second compound 1 µM, first compound 1 µM) 108%; (second compound 1 µM, first compound 3.16 µM) 56.3%; (second compound 1 µM, first compound 10 µM) 6.44%.

Turning to `CC(C)n1nc(-c2ccc3oc(N)nc3c2)c2c(N)ncnc21`, the viability, T/C is 105% [middle of 4 runs] (compound 0.000316 µM); 104% (2×) and 99.9% and 103% (compound 0.001 µM); 110% [middle of 4 runs] (compound 0.00316 µM); 99% and 112% (2×) and 109% (compound 0.01 µM); 52.1% and 119% (2×) and 94.3% (compound 0.0316 µM); 9.59% [middle of 4 runs] (compound 0.1 µM). The IC50 (curve of compound) was 0.0331 µM and 0.0627 µM and 0.0555 µM.
